# System: OVCAR-3 cells
# Assay: imaging-based nuclear count analysis (NCA) in OVCAR-3 cells
# Type: cell-based
# Conditions: Homo sapiens, 96 h, cultured 4 days, Hoechst 33342 nuclear count, 0.1% DMSO
# Description: Test name: imaging-based nuclear count analysis (NCA) in OVCAR-3 cells
# • a) When the cell confluence reached 80%-90%, the cells were treated. • b) The cells were resuspended in a medium and then counted and diluted at a desired density. • c) A cell suspension containing appropriate cells was added to the 384-well plate at 30 µL/well: 600 cells/well.
# • a) 30 µL of 8% fixative (final concentration 4%) was added and the plate was incubated at room temperature for 30 min. • b) The plate was centrifuged at 1000RPM for 30s. • c) The plate was washed twice with 60 µl/well PBS. • d) After immobilization, the cells were permeabilized and stained in 60 µL of a wash buffer containing 2 µg/mL Hoechst 33342 DNA dye (1% BSA, 0.2% Triton X-100, 1X PBS). • e) The plate was sealed and incubated at room temperature in the dark for 1 h. • f) It was washed with PBS 3 times. • g) 50µLPBS/well was added and the plate was scanned using HCS. • h) Data acquisition and detection
# High-reading control wells: cells + 30 nL DMSO; low-reading control wells: 10 µM AM-5308.
# IC50 (nM) was calculated using GraphPad Prism 8 software and the effect-dose curves of the compound were plotted. Table 1 Bioactivity data of the compound of the present application
row,SMILES,IC50 [nM]
1,"COc1ccc2c(NC(=O)c3ccc(NS(=O)(=O)CCO)cc3N3CCC4(CC3)CC4)cccc2c1 [Compound 1, 2-{6-azaspiro[2.5]octan-6-yl}-4-(2-hydroxyethanesulfonylamino)-N-(6-methoxynaphthalen-1-yl)benzamide]",163
2,"Cc1ccc2c(NC(=O)c3ccc(NS(=O)(=O)CCO)cc3N3CCC4(CC3)CC4)cccc2c1 [Compound 4, 2-{6-azaspiro[2.5]octan-6-yl}-4-(2-hydroxyethanesulfonylamino) -N-(6-methylnaphthalen-1-yl)benzamide]",478
3,"O=C(Nc1cccc2cc(C(F)(F)F)ccc12)c1ccc(NS(=O)(=O)CCO)cc1N1CCC2(CC1)CC2 [Compound 7, 2-{6-azaspiro[2.5]octan-6-yl}-4-(2-hydroxyethanesulfonylamino) -N-(6-(trifluoromethyl)naphthalen-1-yl)benzamide]",458
4,"O=C(Nc1cccc2c1nc1n2CCCC1)c1ccc(NS(=O)(=O)CCO)cc1N1CCC2(CC1)CC2 [Compound 22, 4-(2-hydroxyethanesulfonylamino)-2-(6-azaspiro[2.5]octan-6-yl)-N-(benzo[4,5]imidazo[1,2-a]piperidin-6-yl)benzamide]",143
5,"Cc1cc(NC(=O)c2ccc(NS(=O)(=O)CCO)cc2N2CCC3(CC2)CC3)nc2c1nc1n2CC(F)(F)CC1 [Compound 64, N-(8,8-difluoro-4-methyl-pyrido[2,3-d]imidazo[1,2-a]piperidin-2-yl)-4-(2-hydroxyethanesulfonylamino)-2-(6-azaspiro[2.5]octan-6-yl)benzamide]",763
6,"O=C(Nc1cccc2c1nc1n2CCC1(F)F)c1ccc(NS(=O)(=O)CCO)cc1C1=CCC2(CC1)CC2 [Compound 90, N-(3,3-difluoro-2,3-dihydro-1H-benzo[d]pyrrolo[1,2-a]imidazol-5-yl)-4-(2-hydroxyethanesulfonylamino)-2-(spiro[2.5]oct-5-en-6-yl)benzamide]",71.2
7,COc1ccc2c(NC(=O)c3ccc(NS(=O)(=O)CCO)cc3N3CCC4(CC3)CC4)ccnc2c1 [Compound 95],98.9
8,"CC1CCn2c1nc1c(NC(=O)c3ccc(NS(=O)(=O)CCO)cc3N3CCC4(CC3)CC4)cccc12 (stereo not drawn) [Compound 106, 4-(2-hydroxyethanesulfonylamino) -N-(3-methyl-2,3-dihydro-1H-benzo[d]pyrrolo[1,2-a]imidazol-5-yl)-2-(6-azaspiro[2.5]octan-6-yl)benzamide]",125
9,"O=C(Nc1cccc2c1nc1n2CCCCC1)c1ccc(NS(=O)(=O)CCO)cc1C1=CCC2(CC1)CC2 [Compound 108, 4-(2-hydroxyethanesulfonylamino) -2-(spiro[2.5]oct-5-en-6-yl)-N-(7,8,9,10-tetrahydro-6H-benzo[4,5]imidazo[1,2-a]azepin-4-yl)benzamide]",183
10,"O=C(Nc1cccc2c1oc1ccccc12)c1ccc(NS(=O)(=O)CCO)cc1N1CCC2(CC1)CC2 [Compound 111, N-(dibenzo[b,d]furan-4-yl)-4-(2-hydroxyethanesulfonylamino)-2-(6-azaspiro[2.5]octan-6-yl)benzamide]",161

# Results, then the molecule that gave them:
row,IC50 [nM],SMILES
1,976,"O=C(Nc1cccc2ccc(F)cc12)c1ccc(NS(=O)(=O)CCO)cc1N1CCC2(CC1)CC2 [Compound 6, 2-{6-azaspiro[2.5]octan-6-yl}-N-(7-fluoronaphthalen-1-yl)-4-(2-hydroxyethanesulfonylamino) benzamide]"
2,568,"O=C(Nc1cccc2ccccc12)c1ccc(NS(=O)(=O)CCO)cc1N1CCC2(CC1)CC2 [Compound 2, 2-{6-azaspiro[2.5]octan-6-yl}-4-(2-hydroxyethanesulfonylamino) -N-(naphthalen-1-yl)benzamide]"
3,369,"O=C(Nc1cccc2cc(Cl)ccc12)c1ccc(NS(=O)(=O)CCO)cc1N1CCC2(CC1)CC2 [Compound 5, {6-azaspiro[2.5]octan-6-yl}-N-(6-chloronaphthalen-1-yl)-4-(2-hydroxyethanesulfonylamino) benzamide]"
4,258,"O=C(Nc1cccc2c1CCC1(CCCC1)C2)c1ccc(NS(=O)(=O)CCO)cc1N1CCC2(CC1)CC2 [Compound 51, 2-{6-azaspiro[2.5]octan-6-yl}-N-{3',4'-dihydro-1'H-spiro[cyclopentane-1,2'-naphthalen]-5'-yl}-4-(2-hydroxyethanesulfonylamino)benzamide]"
5,117,"O=C(Nc1ccnc2cc(C3CC3)ccc12)c1ccc(NS(=O)(=O)CCO)cc1N1CCC2(CC1)CC2 [Compound 112, 2-{6-azaspiro[2.5]octan-6-yl}-N-(7-cyclopropylquinolin-4-yl)-4-(2-hydroxyethylsulfonylamino)benzamide]"
6,109,"Cc1cc(NC(=O)c2ccc(NS(=O)(=O)CCO)cc2N2CCC3(CC2)CC3)c2nc3n(c2c1)[C@H]1CC[C@@H]3C1 [Compound 99, 4-(2-hydroxyethanesulfonylamino)-N-((1S,4R)-8-methyl-1,2,3,4-tetrahydro-1,4-methylenebenzo[4,5]imidazo[1,2-a]pyridin-6-yl)-2-(6-azaspiro[2.5]octan-6-yl)benzamide]"
7,97.9,"O=C(Nc1cc(F)cc2c1nc1n2[C@H]2CC[C@@H]1C2)c1ccc(NS(=O)(=O)CCO)cc1N1CCC2(CC1)CC2 [Compound 113a, N-((1S,4R)-8-fluoro-1,2,3,4-tetrahydro-1,4-methylenebenzo[4,5]imidazo [1,2-a]pyridin-6-yl)4-(2-hydroxyethanesulfonylamino) -2-(6-azaspiro[2.5]octan-6-yl)benzamide]"
8,73.1,"O=C(Nc1cccc2c1CCC1(CC1)C2)c1ccc(NS(=O)(=O)CCO)cc1N1CCC2(CC1)CC2 [Compound 56, 2-{6-azaspiro[2.5]octan-6-yl}-N-{3',4'-dihydro-1'H-spiro[cyclopropane-1,2'-naphthalen]-5'-yl}-4-(2-hydroxyethanesulfonylamino)benzamide]"

# Same assay, conditions: cultured 4 days, Hoechst 33342 nuclear count, 0.1% DMSO
row,IC50 [nM],SMILES
1,110,"O=C(Nc1cccc2c1nc1n2C2CCC1CC2)c1ccc(NS(=O)(=O)CCO)cc1N1CCC2(CC1)CC2 [Compound 100, 4-(2-hydroxyethanesulfonylamino)-2-(6-azaspiro[2.5]octan-6-yl)-N-(1,2,3,4-tetrahydro-1,4-ethylbenzo[4,5]imidazo[1,2-a]pyridin-6-yl)benzamide]"

# Biological target: T1, KIF18A (Homo sapiens, UniProt Q8NI77)
# T1 sequence (Q8NI77 1-898): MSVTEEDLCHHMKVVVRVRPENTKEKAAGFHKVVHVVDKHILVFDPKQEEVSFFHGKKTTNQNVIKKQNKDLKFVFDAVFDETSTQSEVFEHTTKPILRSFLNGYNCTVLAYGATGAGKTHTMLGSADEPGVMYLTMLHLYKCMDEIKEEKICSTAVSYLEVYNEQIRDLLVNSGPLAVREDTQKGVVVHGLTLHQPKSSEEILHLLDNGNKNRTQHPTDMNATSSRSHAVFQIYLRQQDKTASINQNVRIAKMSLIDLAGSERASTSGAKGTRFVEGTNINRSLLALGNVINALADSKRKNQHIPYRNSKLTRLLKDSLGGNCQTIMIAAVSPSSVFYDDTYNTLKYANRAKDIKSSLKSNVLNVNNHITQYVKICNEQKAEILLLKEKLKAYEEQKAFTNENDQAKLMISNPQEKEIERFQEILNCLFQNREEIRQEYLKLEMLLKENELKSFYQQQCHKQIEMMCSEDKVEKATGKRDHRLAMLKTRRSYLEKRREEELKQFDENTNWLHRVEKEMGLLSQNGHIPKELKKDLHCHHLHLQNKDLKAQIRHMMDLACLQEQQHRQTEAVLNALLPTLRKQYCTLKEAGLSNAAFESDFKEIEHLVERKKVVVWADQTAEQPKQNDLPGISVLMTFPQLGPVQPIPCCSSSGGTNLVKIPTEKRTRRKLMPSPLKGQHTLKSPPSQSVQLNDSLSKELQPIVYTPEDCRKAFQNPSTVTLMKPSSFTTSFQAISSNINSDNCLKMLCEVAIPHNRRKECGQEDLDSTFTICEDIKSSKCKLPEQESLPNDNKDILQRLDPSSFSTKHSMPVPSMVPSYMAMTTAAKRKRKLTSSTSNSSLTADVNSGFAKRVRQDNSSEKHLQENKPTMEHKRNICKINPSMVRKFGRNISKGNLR
# Assay: KIF18A enzyme activity test (ADP Glo)
# Type: biochemical
# Conditions: ADP Glo luminescence, 60 min reaction at room temperature, 1% DMSO
# Description: Test name: KIF18A enzyme activity test
# • 1) Compound dilution and treatment: The final concentrations of AM-5308: 10000, 3333.3, 1111.1, 370.3, 123.4, 41.1, 13.7, 4.5, 1.5, 0.5 nM, the final testing concentrations of the testing compound: 10000, 3333.3, 1111.1, 370.3, 123.4, 41.1, 13.7, 4.5, 1.5 and 0.5 nM. • 2) To each well of the reaction plate, 100 nL of the diluted compound stock solution was transferred using Echo 655. The final concentration of DMSO was 1%. • 3) The reaction plate was sealed with a sealing membrane and centrifuged at 1000g for 1 min. • 4) A 2× enzyme solution was prepared with 1× reaction buffer. • 5) To each well of the reaction plate, 5 µL of 2×enzyme solution was added. The plate was sealed with a sealing membrane, centrifuged at 1000g for 1 min and left at room temperature for 15 min. • 6) A 2× ATP solution was prepared with 1× reaction buffer. • 7) To the reaction plate, 5 µL of 2×ATP solution was added, the plate was centrifuged at 1000g for 1 min, and the reaction was started. • 8) The system was allowed to react at room temperature for 60 min. • 9) 10 µL of ADP Glo reagent was added. The system was centrifuged at 1000 g for 1 min and incubated at room temperature for 60 min. • 10) 20 µL of kinase detection reagent was added. The system was centrifuged at 1000 g for 1 min, and incubated at room temperature for 60 min. • 11) The system was centrifuged at 1000 g for 1 min. • 12) The luminescence signals were read on Envision 2104.
# The inhibition percentage is calculated as follows: %inhibition = 100−(Signalcmpd−SignalAve_PC)/(SignalAve_VC−SignalAve_PC) × 100 [formula] • Signalcmpd: Average value of the test compound on the reaction plate. • SignalAve_PC: Average value of the positive control (AM-5308) on the reaction plate. • SignalAve_VC: Average value of the negative control (DMSO) on the reaction plate.
# IC50 was calculated and the dose-effect curve was fit: The IC50 of the compound was obtained by non-linear fitting formula with GraphPad 8.0.
# Z factor > 0.5; S/B > 2. Table 2 Enzyme activity data for the compound of the present application
row,IC50 [nM],SMILES
1,21.2,"COc1ccc2c(NC(=O)c3ccc(NS(=O)(=O)CCO)cc3N3CCC4(CC3)CC4)cccc2c1 [Compound 1, 2-{6-azaspiro[2.5]octan-6-yl}-4-(2-hydroxyethanesulfonylamino)-N-(6-methoxynaphthalen-1-yl)benzamide]"
2,21.3,"O=C(Nc1cccc2c1nc1n2CCCC1)c1ccc(NS(=O)(=O)CCO)cc1N1CCC2(CC1)CC2 [Compound 22, 4-(2-hydroxyethanesulfonylamino)-2-(6-azaspiro[2.5]octan-6-yl)-N-(benzo[4,5]imidazo[1,2-a]piperidin-6-yl)benzamide]"
